Source: patent US20250127937A1, “FAP INHIBITOR” (UNIVERSITÄT HEIDELBERG, priority 2018, published 2025)

Assays:
[1] = biological target: recombinant human FAP protein (Homo sapiens (Human), UniProt Q12884); test: Enzyme inhibition assay with fluorogenic substrate Z-GP-AMC; format: biochemical; conditions: 0-1000 nM/well, 30 min at 37° C.
[2] = tested on: tumor lesions and normal tissue of cancer patients; test: Clinical PET/CT imaging in cancer patients (SUV); format: in vivo, human
Protocol: Diagnostic imaging of more than 100 patients was performed under the conditions of the updated declaration of Helsinki, § 37 (Unproven interventions in clinical practice) and in accordance to the German Pharmaceuticals Law § 13 (2b) for medical reasons using either ^68Ga-FAPI-02 or -04, which was applied intravenously (20 nmol, 122-336 MBq), 10 min, 1 and 3 hours post tracer administration. Variation of injected radiotracer activity is due to the short half-life of ^68Ga and the variable elution efficiencies obtained during the lifetime of the ^68Ge/^68Ga generator. […] The PET/CT scans were performed with a Biograph mCT Flow™ PET/CT-Scanner (Siemens Medical Solution) using the following parameters: slice thickness of 5 mm, increment of 3-4 mm, soft-tissue reconstruction kernel, care dose. Immediately after CT scanning, a whole-body PET was acquired in 3D (matrix 200×200) in FlowMotion™ with 0.7 cm/min. The emission data were corrected for random, scatter and decay. Reconstruction was conducted with an ordered subset expectation maximisation (OSEM) algorithm with 2 iterations/21 subsets and Gauss-filtered to a transaxial resolution of 5 mm at full-width half-maximum (FWHM). Attenuation correction was performed using the low-dose non-enhanced CT data. The quantitative assessment of standardized uptake values (SUV) was done using a region of interest technique.
For the normal tissue of 16 organs, a 2 cm Spheric-VOI was placed in the parenchyma, for tumor lesions a threshold segmented VOI was used to quantify SUVmean/max^3.

[3] = tested on: HT-1080-FAP cells; test: Efflux experiments in HT-1080-FAP cells; format: cell-based, human; conditions: after 24 h in compound-free medium
Protocol: Radioligand binding studies were performed using HT-1080-FAP cells. The radiolabeled compound was added to the cell culture and incubated for different time intervals ranging from 10 min to 24 h. Competition experiments were performed by simultaneous exposure to unlabeled (10^−5 M to 10^−9M) and radiolabeled compound for 60 min. For efflux experiments, radioactive medium was removed after incubation for 60 min and replaced by non-radioactive medium for time intervals ranging from 1 to 24 h. For internalization experiments, surface bound activity was removed by incubating the cells with 1 M glycine-HCl buffer for 10 min. The radioactivity was measured using a γ-counter, normalized to 1 mio cells and calculated as percentage of applied dose (% ID).
For radioligand binding studies, cells were seeded in 6-well plates and cultivated for 48 h to a final confluence of approx. 80-90% (1.2-2 mio cells/well). The medium was replaced by 1 mL fresh medium without fetal calf serum. The radiolabeled compound was added to the cell culture and incubated for different time intervals ranging from 10 min to 24 h. Competition experiments were performed by simultaneous exposure to unlabeled (10^−5 M to 10^−9 M) and radiolabeled compound for 60 min. For efflux experiments, radioactive medium was removed after incubation for 60 min and replaced by non-radioactive medium for time intervals ranging from 1 to 24 h. In all experiments, the cells were washed with 1 mL phosphate-buffered saline pH 7.4 for 2 times and subsequently lysed with 1.4 ml lysis buffer (0.3 M NaOH, 0.2% SDS). Radioactivity was determined in a γ-counter (Cobra II, Packard), normalized to 1 mio cells and calculated as percentage of the applied dose (% ID). Each experiment was performed 3 times, and 3 repetitions per independent experiment were acquired.

[4] = Blood pool clearance from SUVmean of the heart; format: in vivo
From the text: The calculated plateau values, which were higher for Ga-68 labeled FAPI-13, -21, -36 and AlF-18 labeled FAPI-74 theoretically correspond to a higher fraction of compound which is not cleared due to unspecific binding or by remaining in circulating (Table 12).

[5] = Preliminary dosimetry estimate in patients; format: in vivo, human
[6] = tested on: HT-1080-FAP tumor xenografts; test: Organ distribution ex vivo in HT-1080-FAP tumor bearing nude mice; parameters: species or system mouse
Protocol: For in vivo experiments, 8 week old BALB/c nu/nu mice (Charles River) were subcutaneously inoculated into the right trunk with 5×10^6 with HT-1080-FAP, Capan-2 or SK-LMS-1 cells, respectively. When the size of the tumor reached approximately 1 cm^3, the radiolabeled compound was injected via the tail vein (˜10 MBq for small-animal PET imaging; ˜1 MBq for organ distribution). PET imaging was performed up to 140 min after intravenous injection of 1 MBq of Ga-68 labeled compound per mouse using the Inveon PET small-animal PET scanner (Siemens). Images were reconstructed iteratively using the 3D-OSEM+MAP method and were converted to standardized uptake value (SUV) images. Quantification was done using a ROI technique and expressed as SUV mean. For organ distribution of Lu-177 labeled compound (approx. […] per mouse), the animals (n=3 for each time point) were sacrificed after indicated time points (from 30 min to 24 h). The distributed radioactivity was measured in all dissected organs and in blood using a γ-counter (Cobra Autogamma, Packard). The values are expressed as percentage of injected dose per gram of tissue (% ID/g).

[7] = Lu-177 labeled, 1 h after i.v., HT-1080-FAP, mean ± SD, n = 3

Sequence of recombinant human FAP protein (Q12884 whole entry): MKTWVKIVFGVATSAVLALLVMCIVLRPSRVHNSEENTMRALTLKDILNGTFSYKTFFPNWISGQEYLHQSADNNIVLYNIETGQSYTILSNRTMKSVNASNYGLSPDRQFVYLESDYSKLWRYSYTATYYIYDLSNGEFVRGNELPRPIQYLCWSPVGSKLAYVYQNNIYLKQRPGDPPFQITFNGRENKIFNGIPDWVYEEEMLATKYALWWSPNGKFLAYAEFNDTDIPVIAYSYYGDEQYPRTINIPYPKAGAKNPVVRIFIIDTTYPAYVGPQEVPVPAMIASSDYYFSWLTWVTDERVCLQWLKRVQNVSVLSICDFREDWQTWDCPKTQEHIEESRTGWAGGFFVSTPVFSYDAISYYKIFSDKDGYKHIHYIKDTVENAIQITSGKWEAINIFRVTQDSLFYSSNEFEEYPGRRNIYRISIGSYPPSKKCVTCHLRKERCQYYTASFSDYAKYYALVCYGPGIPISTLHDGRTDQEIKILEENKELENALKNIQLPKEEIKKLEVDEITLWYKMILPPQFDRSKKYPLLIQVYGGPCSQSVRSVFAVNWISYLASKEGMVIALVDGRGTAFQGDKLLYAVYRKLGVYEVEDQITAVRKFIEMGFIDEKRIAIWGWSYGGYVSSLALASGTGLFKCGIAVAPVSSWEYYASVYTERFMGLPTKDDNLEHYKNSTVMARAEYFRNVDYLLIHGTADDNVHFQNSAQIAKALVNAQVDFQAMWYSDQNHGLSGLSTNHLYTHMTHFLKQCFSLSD

inhibition of enzymatic FAP activity [1]: robust, dose-dependent FAP inhibition
background activity (SUV) ([2]; 68Ga labeled, 1 h p.i.): 2
decrease of tumor uptake (washout) ([2]; from 1 h to 3 h p.i., patients): 50%
Plateau value (SUVmean) ([4]; hypothetical plateau, two phase exponential decay of heart SUVmean): 0.21
equivalent dose of an exam ([5]; 200 MBq Ga-68): 3-4 mSv
effective dose ([5]; calculated with IDAC1/ICRP60): 1.66E-02 mSv/MBq
effective dose ([5]; calculated with IDAC2/ICRP103): 1.35E-02 mSv/MBq
effective dose ([5]; calculated with OLINDA): 1.64E-02 mSv/MBq
highest enrichment within the FAP-expressing tumor ([6]; 177Lu labeled, after 2 h): 5.4 % ID/g
Tumor uptake 1 h ([6]; HT-1080-FAP tumor bearing nude mice, 1 h, mean ± SD, n = 3): 4.9 ± 0.82 % ID/g
Tumor uptake 4 h ([6]; HT-1080-FAP tumor bearing nude mice, 4 h, mean ± SD, n = 3): 5.4 ± 1.51 % ID/g
Tumor uptake 24 h ([6]; HT-1080-FAP tumor bearing nude mice, 24 h, mean ± SD, n = 3): 3.0 ± 0.23 % ID/g
Blood uptake [6, 7]: 1.70 ± 0.206 % ID/g
Brain uptake [6, 7]: 0.08 ± 0.010 % ID/g
Heart uptake [6, 7]: 0.80 ± 0.089 % ID/g
Intestines uptake [6, 7]: 0.66 ± 0.196 % ID/g
Kidneys uptake [6, 7]: 2.28 ± 0.477 % ID/g
Liver uptake [6, 7]: 0.73 ± 0.118 % ID/g
Lungs uptake [6, 7]: 1.50 ± 0.151 % ID/g
Muscle uptake [6, 7]: 0.92 ± 0.020 % ID/g
Spleen uptake [6, 7]: 0.48 ± 0.072 % ID/g
Tumor uptake [6, 7]: 4.89 ± 0.817 % ID/g
SMILES: N#C[C@@H]1CC(F)(F)CN1C(=O)CNC(=O)c1ccnc2ccc(OCCCN3CCN(C(=O)CN4CCN(CC(=O)O)CCN(CC(=O)O)CCN(CC(=O)O)CC4)CC3)cc12 [FAPI-04]
maximum SUV values in primary tumor, lymph node and bone metastases ([2]; 68Ga labeled, 1 h after i.v. administration, patients): ≤ 48.0
average SUVmax, lowest uptake group ([2]; 68Ga labeled, 1 h p.i., renal cell, differentiated thyroid, adenoid-cystic, gastric carcinoma, pheochromocytoma): < 6
average SUVmax, highest uptake group ([2]; 68Ga labeled, 1 h p.i., sarcoma, esophageal, breast, cholangiocellular carcinoma, lung cancer): > 12
retention of the originally accumulated radioactivity (efflux) [3]: 49%
Blood pool-clearence (T1/2 [min]) ([4]; rate determining half-life, two phase exponential decay of heart SUVmean 0.375-60 min): 7.1 min
